Like-named read-outs stand apart in the source and are kept apart here.
Columns and labels:
[1] = system: Ba/F3 EGFR-L858R-T790M-C797S (LTC); experiment: Cell proliferation assay (CellTiter-Glo), Ba/F3 LTC; type: cell-based; conditions: Ba/F3 EGFR-L858R-T790M-C797S cells, 72 hour incubation, CTG readout
Procedure: (§1) • DMEM Medium (Gibco, Cat#11965118) • RPMI1640 Medium (Gibco, Cat#11875119) • Fetal Bovine Serum (FBS) (GBICO, Cat#10099-141) • CellTiter-Glo® Luminescent Cell Viability Assay Kit (Promega, Cat#G7572) 96-well, Black, Clear Flat Bottom Plate (Corning®, Cat# 3603)
(§2) • SpectraMax Multimode Microplate Reader MD, 2104-0010A; • CO2 Incubator, Thermo Scientific 3100 Series; • Biosafety Cabinet, Thermo Scientific, 1300 Series A2; • Inverted Microscope, Olympus, CKX41SF; • Siemens Refrigerator, KK25E76TI.
(§3) • 1. Cell Culture and Inoculation: • (1) Harvest cells in a logarithmic growth phase and count the cells using a […]. Test cell viability using a trypan blue exclusion method to ensure that cell viability is above 90%. • (2) Adjust the cell concentration to desired final density; and add 90 µL of cell suspension to a 96-well plate. • (3) Incubate the cells overnight at 37°C, under 5% CO2 and 95% humidity in the 96-well plate. • 2. T0 Reference Data: • (1) Add 10 µL PBS to each well of the T0 plate containing cells. • (2) Thaw the CTG reagent and equilibrate the plate to room temperature for 30 minutes. • (3) Add an equal volume of CTG solution to each well. • (4) Lyse cells by shaking on an orbital shaker for 5 minutes. • (5) Leave the plate at room temperature for 20 minutes to stabilize the luminescence signal. • (6) Read the T0 […]. • 3. Compound Dilution and Addition • (1) Add a corresponding volume of DMSO to a corresponding compound powder according to the compound information sheet to prepare a 10 mM stock solution. • (2) Prepare 1000-fold and 3.16-fold diluted compound solutions. • (3) Dilute the 1000× diluted compound solution 100-fold with PBS to prepare a 10-fold compound solution, with a maximum concentration of 10 µM, nine concentrations and 3.16-fold dilution. Then add 10 µL of the drug solution concentration to individual wells of the 96-well plate seeded with cells. Test each compound concentration in triplicate wells, and the final DMSO concentration is 0.1%. • (4) Incubate the cells in the 96-well plate containing the drug compounds at 37°C, under 5% CO2, and 95% humidity for an additional 72 hour period prior to performing the CTG analysis. • 4. Fluorescence Signal Reading • (1) Thaw the CTG reagent and equilibrate the plate to room temperature for 30 minutes. • (2) Add an equal volume of CTG solution to each well. • (3) Lyse cells by shaking on an orbital shaker for 5 minutes. • (4) Leave the plate at room temperature for 20 minutes to stabilize the […]. • (5) Read fluorescence value. • 5. Data Processing
(§4) Analyze the data by using GraphPad Prism 7.0 software, and use Non-linear S-curve regression to fit the dose-response curves, to calculate the IC50 values (in nM). The specific experiment results are presented in Table 1: [formula] Table 1: Biology Test Results

A431 WT = experiment: Cell proliferation assay (CellTiter-Glo), A431 WT; type: cell-based; conditions: A431 WT cells, 72 hour incubation, CTG readout
Procedure: as §1, §2, §3, §4

[2] = system: Ba/F3 EGFR-L858R-C797S (LC); experiment: Cell proliferation assay (CellTiter-Glo), Ba/F3 LC; type: cell-based; conditions: Ba/F3 EGFR-L858R-C797S cells, 72 hour incubation, CTG readout
Procedure: as §1, §2, §3, §4

[3] = Pharmacokinetic experiment in mice; type: in vivo; conditions: male, mouse; ICR mice, single oral administration (PO), 10 mg/kg, plasma
Excerpt: The purpose of this trial is to study the pharmacokinetic behavior of some compounds of the present invention, and the administration method is: Single oral administration (PO) to ICR mice.
The compounds used in this trial are from the compounds in the specific examples of the present invention and the listed positive compounds.
ICR mice male N=9 original source: Shanghai Sippr-Bk Lab Animal Co., Ltd.
The compounds are weighed and dissolved in the corresponding solution (10% PG + 10% Solutol® + 80% pH3 citrate buffer). The mixture is then shaken well and sonicated to prepare a 1 mg/mL stock solution. Nine mice are orally administered at a dose of 10 mg/kg (or IV 2 mg/kg) after an overnight fast.
About 90 µL of blood is collected via the submandibular vein per time point, heparin sodium anticoagulant is added, the sample is placed on ice after collection, and plasma is centrifuged within 1 hour (centrifugation conditions: 8,000 rpm, 6 minutes, 2-8°C). The blood collection timepoints are 0, 0.25, 0.5, 1, 2, 4, 6, 8 and 24 h. The samples are stored in a -20°C refrigerator.
The plasma sample is 40 µL, 160 µL of ice-cold acetonitrile containing internal standard is added, vortexed for 3 minutes, and centrifuged at 11,000 rpm for 5 minutes. 100 µL of the supernatant is taken and added to 100 µL of water, 5 µL of the sample is taken and injected into LC/MS/MS for analysis.

Compound | IC50 ([1]; Mus musculus, BaF3) [nM] | IC50 (A431 WT; Homo sapiens, A-431) [nM] | IC50 ([2]; Mus musculus, BaF3) [nM] | AUC(0-t) [3] [ng·h/mL] | Cmax [3] [ng/mL] | half-life [3] [h] | IC50 ([1]; read-out: IC50 BaF3 LTC) [nM] | IC50 (A431 WT) [nM] | IC50 ([2]; read-out: IC50 BaF3 LC) [nM]
Cn1ncc2c1OCC1(CCCC1)Cn1nc(N3CCC(NS(C)(=O)=O)C3)c3cnc(cc31)Nc1ccnc-2n1 (stereo in doubt) [Example 52, (R)-N-(1-(1'-methylspiro(cyclopentane-1,6'-8-oxa-3-aza-4(6,1)-pyrazolo[4,3-c]pyridina-2(2,4)-pyrimidina-1(4,5) -pyrazolacyclooctaphane)-3' -yl)pyrrolidin-3-yl)methanes ulfonamide] | 16.4 | 261 | 31 | – | – | – | – | – | –
Cn1ncc2c1OCC1(CCCC1)Cn1nc(C#CC3CCNCC3)c3cnc(cc31)Nc1ccnc-2n1 [Example 6, 1'-methyl-3'-(piperidin-4-ylethynyl)spiro(cyclopentane-1,6'-8-oxa-3-aza-4(6,1)-pyrazolo[4,3-c]pyridina-2(2,4)-pyrimidina-1(4,5)-pyrazolacyclooctaphane)] | 28.3 | 1360 | 35.6 | – | – | – | – | – | –
CCN1CCC(C#Cc2nn3c4cc(ncc24)Nc2ccnc(n2)-c2cnn(C)c2OCC2(CCCC2)C3)CC1 [Example 7, 3'-((1-ethylpiperidin-4-yl)ethynyl)-1'-methylspiro(cyclopentane-1,6'-8-oxa-3-aza-4(6,1)-pyrazolo[4,3-c]pyridina-2(2,4)-pyrimidina-1(4,5)-pyrazolacyclooctaphane)] | 24.6 | 1660 | 43.5 | 2520 | 193 | 5.6 | – | – | –
CN1CCC(F)(C#Cc2nn3c4cc(ncc24)Nc2ccnc(n2)-c2cnn(C)c2OCC2(CCC2)C3)CC1 [Example 12, 3'-((4-fluoro-1-methylpiperidin-4-yl)ethynyl)-1'-methyls piro(cyclobutane-1,6'-8-oxa-3-aza-4(6,1)-pyrazolo[4,3-c]pyridina-2(2,4)-pyrimidina-1 (4,5)-pyrazolacyclooctaphane)] | 61.9 | 629 | 124 | – | – | – | – | – | –
Cn1ncc2c1OCC1(CCCC1)Cn1nc(N3CCC(F)(F)C3)c3cnc(cc31)Nc1ccnc-2n1 [Example 15, 3'-(3,3-difluoropyrrolidin-1-yl)-1'-methylspiro(cyclopentane-1,6'-8-oxa-3-aza-4(6, 1)-pyrazolo[4,3-c]pyridina-2(2,4)-pyrimidina-1(4,5)-pyrazolacyclooctaphane)] | 32.4 | 1050 | 84.4 | – | – | – | – | – | –
CO[C@H]1CCN(c2nn3c4cc(ncc24)Nc2ccnc(n2)-c2cnn(C)c2OCC2(CCCC2)C3)C1 [Example 16, (S)-3'-(3-methoxypyrrolidin-1-yl)-1'-methylspiro(cyclopentane-1,6'-8-oxa-3-aza-4(6,1)-pyrazolo[4,3-c]pyridina-2(2,4)-pyrimidina-1(4,5)-pyrazolacyclooctaphane)] | 13.3 | 482 | 23.8 | – | – | – | – | – | –
COC[C@@H]1CCN(c2nn3c4cc(ncc24)Nc2ccnc(n2)-c2cnn(C)c2OCC2(CCCC2)C3)C1 [Example 17, (R)-3'-(3-(methoxymethyl)pyrrolidin-1-yl)-1'-methyls piro(cyclopentane-1,6'-8-oxa-3-aza-4(6,1)-pyrazolo[4,3-c]pyridina-2(2,4)-pyrimidina-1(4,5)-pyrazolacyclooctaphane)] | 7.8 | 391 | 32.1 | – | – | – | – | – | –
COCC[C@@H]1CCN(c2nn3c4cc(ncc24)Nc2ccnc(n2)-c2cnn(C)c2OCC2(CCCC2)C3)C1 [Example 18, (S)-3'-(3-(2-methoxyethyl)pyrrolidin-1-yl)-1'-methylspi ro(cyclopentane-1,6'-8-oxa-3-aza-4(6,1)-pyrazolo[4,3-c]pyridina-2(2,4)-pyrimidina-1(4,5)-pyrazolacyclooctaphane)] | 10.9 | 765 | 25.4 | – | – | – | – | – | –
COCC[C@H]1CCN(c2nn3c4cc(ncc24)Nc2ccnc(n2)-c2cnn(C)c2OCC2(CCCC2)C3)C1 [Example 19, (R)-3'-(3-(2-methoxyethyl)pyrrolidin-1-yl)-1'-methyls piro(cyclopentane-1,6'-8-oxa-3-aza-4(6,1)-pyrazolo[4,3-c]pyridina-2(2,4)-pyrimidina-1(4,5)-pyrazolacyclooctaphane)] | 11.3 | 771 | 19.5 | – | – | – | – | – | –
Cn1ncc2c1OCC1(CCCC1)Cn1nc(N3CC[C@H](C(C)(C)O)C3)c3cnc(cc31)Nc1ccnc-2n1 [Example 20, (S)-2-(1-(1'-methylspiro[cyclopentane-1,6'-8-oxa-3-aza-4(6,1)-pyrazolo[4,3-c]pyridina-2(2,4)-pyrimidina-1(4,5)-pyrazolacyclooctaphane]-3'-yl)pyrrolidin-3-yl)propan-2-ol] | 16 | 512 | 38 | – | – | – | – | – | –
Cn1ncc2c1OCC1(CCCC1)Cn1nc(N3CC[C@H](NC(=O)OC(C)(C)C)C3)c3cnc(cc31)Nc1ccnc-2n1 [Example 47, Tert-butyl (S)-(1-(1'-methylspiro(cyclopentane-1,6'-8-oxa-3-aza-4(6,1)-pyrazolo[4,3-c]pyridina-2(2,4)-pyrimidina-1(4,5) -pyrazolacyclooctaphane)-3 '-yl)pyrrolidin-3-yl)carbam ate] | 35.2 | 2570 | 82 | – | – | – | – | – | –
CC(=O)N[C@@H]1CCN(c2nn3c4cc(ncc24)Nc2ccnc(n2)-c2cnn(C)c2OCC2(CCCC2)C3)C1 [Example 49] | – | – | – | – | – | – | 29.6 | 926 | 59.9
Cn1ncc2c1OCC1(CCCC1)Cn1nc(N3CC[C@@H](NC(=O)C(F)(F)F)C3)c3cnc(cc31)Nc1ccnc-2n1 [Example 50] | 20.7 | 1060 | 86.5 | – | – | – | – | – | –
Cn1ncc2c1OCC1(CCCC1)Cn1nc(N3CC[C@H](NC(=O)C(F)(F)F)C3)c3cnc(cc31)Nc1ccnc-2n1 [Example 56] | 12.5 | 843 | 36.5 | – | – | – | – | – | –
C[C@H]1CCOc2c(cnn2C)-c2nccc(n2)Nc2cc3c(cn2)c(C#CC2CN(C)C2)nn31 [Example A2, (S)-1^1,5-dimethyl-4^3-((1-methylazetidin-3-yl)ethynyl)-1^1 H,4^1H-8-oxa-3-aza-4(6,1)-p yrazolo[4,3-c]pyridina-2(2,4)-pyrimidina-1(4,5)-pyrazol acyclooctaphane] | 167 | 2490 | 176 | – | – | – | – | – | –
C[C@H]1CCOc2c(cnn2C)-c2nccc(n2)Nc2cc3c(cn2)c(C#CC2CCN(C)CC2)nn31 [Example A3, (S)-1^1,5-dimethyl-4^3-((1-methylpiperidin-4-yl)ethynyl)-1^1H,4^1H-8-oxa-3-aza-4(6,1) -pyrazolo[4,3-c]pyridina-2(2,4)-pyrimidina-1(4,5)-pyra zolacyclooctaphane] | 62.1 | 1840 | 53.3 | – | – | – | – | – | –

Reference: patent publication EP4563579A1, “MACROCYCLIC EGFR INHIBITOR, AND PREPARATION METHOD THEREFOR AND PHARMACEUTICAL USE THEREOF” (Abbisko Therapeutics Co., Ltd., priority 2022, dated 2024)
